Test results published in patent US20170265465A1, “BIORATIONAL TREATMENT PRODUCTS AND METHODS OF USING SAME” (Board of Trustees of Michigan State University, priority 2014, published 2017).

Key:
irrigated putting green [1] = assay: Example 15, 2016 bio-adjuvant/fertility study: visual turfgrass quality rating; assay type: in vivo; details: scale 1-9 (1 = worst, 9 = best, 7 = acceptable)
Procedure: (§1) The study was established in four replications of a randomized block design utilizing 2 ft.×21 ft. plots with 6 inch alleys. Treatments were initially applied on Sep. 13, 2016 with the same sprayer and under the same conditions described in Example 1. Turfgrass quality ratings and biomass ratings were performed as described in Example 1. The plots were trimmed on September 19, October 8, and Oct. 24, 2016 and clippings were also collected as described in Example 1.
(§2) Treatments were re-applied on Sep. 28, 2016 and Oct. 11, 2016. Turfgrass visual growth and quality ratings were taken periodically, along with turfgrass color ratings as taken with a Spectrum Technologies, Inc. TCM 500 NDVI Color Meter and a Spectrum Technologies, Inc. FieldScout CM 1000 Chlorophyll Meter. The study was irrigated as needed to prevent wilt. No background fertility was applied to the study area. The area was sprayed with 26GT fungicide on Sep. 27, 2016 to control dollar spot disease.

irrigated putting green [2] = assay: Example 15: visual turfgrass growth rating; assay type: in vivo; details: scale 1-5 (1 = least, 5 = most)
Procedure: as §1, §2

## NC(N)=O [Urea (46-0-0), urea]
Irrigated putting green [1]; Trt. 4, 0.1 lb N/1000 sq. ft. /14 days, Oct. 1 (3 DAT)
  Visual Turfgrass Quality, MEAN: 7.0
Irrigated putting green [1]; Trt. 4, 0.1 lb N/1000 sq. ft. /14 days, Oct. 6 (8 DAT)
  Visual Turfgrass Quality, MEAN: 7.3
Irrigated putting green [1]; Trt. 4, 0.1 lb N/1000 sq. ft. /14 days, Sept. 19 (6 DAT)
  Visual Turfgrass Quality, MEAN: 7.3
Irrigated putting green [1]; Trt. 5, 0.05 lb N/1000 sq. ft. /14 days, Oct. 1 (3 DAT)
  Visual Turfgrass Quality, MEAN: 7.0
Irrigated putting green [1]; Trt. 5, 0.05 lb N/1000 sq. ft. /14 days, Oct. 6 (8 DAT)
  Visual Turfgrass Quality, MEAN: 6.8
Irrigated putting green [1]; Trt. 5, 0.05 lb N/1000 sq. ft. /14 days, Sept. 19 (6 DAT)
  Visual Turfgrass Quality, MEAN: 6.8
Irrigated putting green [2]; Trt. 4, 0.1 lb N/1000 sq. ft. /14 days, Oct. 6
  Visual Turfgrass Growth, MEAN: 2.5
Irrigated putting green [2]; Trt. 4, 0.1 lb N/1000 sq. ft. /14 days, Sept. 19
  Visual Turfgrass Growth, MEAN: 2.5
Irrigated putting green [2]; Trt. 4, 0.1 lb N/1000 sq. ft. /14 days, Sept. 25
  Visual Turfgrass Growth, MEAN: 3.8
Irrigated putting green [2]; Trt. 5, 0.05 lb N/1000 sq. ft. /14 days, Oct. 6
  Visual Turfgrass Growth, MEAN: 2.3
Irrigated putting green [2]; Trt. 5, 0.05 lb N/1000 sq. ft. /14 days, Sept. 19
  Visual Turfgrass Growth, MEAN: 2.8
Irrigated putting green [2]; Trt. 5, 0.05 lb N/1000 sq. ft. /14 days, Sept. 25
  Visual Turfgrass Growth, MEAN: 3.3
